Read-outs that look alike come from different tables or passages of the source.
How the values were obtained:
Rabbits = settings: rabbit, in vivo
Description: Then, erythema and edema formation at the application site was observed. […] The mean value of the sum of erythema and edema scores was used as a simple primary skin irritation index. […]

Mice [1] = experiment: Acute toxicity test in mice; format: in vivo, mouse; settings: intravenous, observed for 2 hours
Description: Male ICR mice at the age of 4 to 6 weeks were used.

Mice [2] = experiment: Effect on scratching behavior induced by serotonin application in mice; format: in vivo, mouse; settings: counted for 15 minutes
Method: To the cervical and dorsal area of male ICR mice (n=3 to 6) at the age of 4 to 6 weeks, 100 μl of a solution obtained by dissolving serotonin hydrochloride in ethanol at 0.1% (hereinafter referred to as serotonin) was applied, and the number of scratching behavior at the application site with the hind legs occurring immediately after the application was counted for 15 minutes after administration with a counter. Administration of a test compound was carried out by skin application, intravenous administration or oral administration. In the case of skin application, the test compound that was dissolved in ethanol was applied in an amount of 100 μl concurrently with serotonin. In the case of intravenous administration, the test compound that was dissolved in physiological saline was administered at a dose of 10 ml/kg at 5 minutes prior to the serotonin application. In the case of oral administration, the test compound that was dissolved in distilled water was administered at a dose of 10 ml/kg at 20 minutes prior to the serotonin application. The control group of each administration route was given the respective solvent, and the values of scratching behavior were compared between the control group and the test compound group.
The results obtained by skin application of the test compound are shown in Table 3; the results obtained by intravenous administration of the test compound are shown in Table 4; and the results obtained by oral administration of the test compound are shown in Table 5.

[3] = skin application, concentration 0.1% in ethanol, concurrently with serotonin
[4] = intravenous administration, dose 3 mg/kg, 5 minutes prior to serotonin

Row | SMILES | Simple primary skin irritation index (Rabbits; female, Kbs: JW, 24 h) | Average number of scratching behavior (Mice [2]; [3]) | also measured
1 | Cc1ccc2nc(C(=O)NCC(C)(C)C)nc(N[C@H]3CCCC[C@H]3NC(=N)N)c2c1.Cl.Cl [Comparative control B, 4-[((1S,2R)-2-{[amino(imino)methyl]amino}cyclohexyl)amino]-6-methyl-N-neopentyl quinazoline-2-carboxamide dihydrochloride, reference compound] | – | – | Simple primary skin irritation index (Rabbits): 2.4
2 | CCOCCNC(=O)c1nc(N[C@H]2CCCC[C@H]2NC(=N)N)c2cc(C)ccc2n1.Cl.Cl [Comparative control C, 4-[((1S,2R)-2-{[amino(imino)methyl]amino}cyclohexyl)amino]-N-(2-ethoxyethyl)-6-methylquinazoline-2-carboxamide dihydrochloride, reference compound] | 2.3 | – | –
3 | COCCCNC(=O)c1nc(N[C@H]2CCCC[C@H]2NC(=N)N)c2cc(C)ccc2n1.Cl.Cl [Comparative control D, 4-[((1S,2R)-2-{[amino(imino)methyl]amino}cyclohexyl)amino]-N-(3-methoxypropyl)-6-methylquinazoline-2-carboxamide dihydrochloride, reference compound] | 2.0 | – | –
4 | Cc1ccc2nc(C(=O)NC(C)C)nc(N[C@H]3CCCC[C@H]3NC(=N)N)c2c1.Cl.Cl [Comparative control E, 4-[((1S,2R)-2-{[amino(imino)methyl]amino}cyclohexyl)amino]-N-isopropyl-6-methylquinazoline-2-carboxamide dihydrochloride, reference compound] | 3.6 | – | –
5 | COCCNC(=O)c1nc(N[C@H]2CCCC[C@H]2NC(=N)N)c2cc(C)ccc2n1.Cl.Cl [Comparative control F, 4-[((1S,2R)-2-{[amino(imino)methyl]amino}cyclohexyl)amino]-N-(2-methoxyethyl)-6-methylquinazoline-2-carboxamide dihydrochloride, reference compound] | 2.2 | – | –
6 | COCCNC(=O)c1nc(N[C@H]2CCCC[C@H]2NC(C)=N)c2cc(C)ccc2n1.Cl.Cl [Example 1, 4-{[(1S,2R)-2-(ethanimidoylamino)cyclohexyl]amino}-N-(2-methoxyethyl)-6-methylquinazolin-2-carboxamide dihydrochloride] | 0.3 | 57.8 | Change in behavior (Mice [1]; 10 mg/kg): No obvious change
7 | COC(C)(C)C(=N)N[C@@H]1CCCC[C@@H]1Nc1nc(C(=O)NCC(C)(C)C)nc2ccc(C)cc12.Cl.Cl [Example 19, N-(2,2-dimethylpropyl)-4-({(1S,2R)-2-[(2-methoxy-2-methylpropanimidoyl)amino]cyclohexyl}amino)-6-methylquinazolin-2-carboxamide dihydrochloride] | 0.4 | 69.2 | –
8 | COCCCNC(=O)c1nc(N[C@H]2CCCC[C@H]2NC(=N)CCOC)c2cc(C)ccc2n1.Cl.Cl [Example 35, 4-({(1S,2R)-2-[(3-methoxypropanimidoyl)amino]cyclohexyl}amino)-N-(3-methoxypropyl)-6-methylquinazolin-2-carboxamide dihydrochloride] | 1.5 | 69.0 | –
9 | Cc1ccc2nc(C(=O)NC(C)C)nc(N[C@H]3CCCC[C@H]3NC(=N)CCO)c2c1.Cl.Cl [Example 58, 4-({(1S,2R)-2-[(3-hydroxypropanimidoyl)amino]cyclohexyl}amino)-N-isopropyl-6-methylquinazolin-2-carboxamide dihydrochloride] | 0.4 | 55.5 | Change in behavior (Mice [1]; 10 mg/kg): No obvious change
10 | COCCCNC(=O)c1nc(N[C@H]2CCCC[C@H]2NC(=N)CCO)c2cc(C)ccc2n1.Cl.Cl [Example 59, 4-({(1S,2R)-2-[(3-hydroxypropanimidoyl)amino]cyclohexyl}amino)-N-(3-methoxypropyl)-6-methylquinazolin-2-carboxamide dihydrochloride] | 0.2 | 57.8 | –
11 | Cc1ccc2nc(C(=O)NCC(C)C)nc(N[C@H]3CCCC[C@H]3NC(=N)C(C)(C)O)c2c1.Cl.Cl [Example 60, 4-({(1S,2R)-2-[(2-hydroxy-2-methylpropanimidoyl)amino]cyclohexyl}amino)-N-isobutyl-6-methylquinazolin-2-carboxamide dihydrochloride] | 1.0 | – | Change in behavior (Mice [1]; 5 mg/kg): No obvious change; Average number of scratching behavior (Mice [2]; [4]): 64.0
12 | CCOCCNC(=O)c1nc(N[C@H]2CCCC[C@H]2NC(=N)CCO)c2cc(C)ccc2n1.Cl.Cl [Example 61, N-(2-ethoxyethyl)-4-({(1S,2R)-2-[(3-hydroxypropanimidoyl)amino]cyclohexyl}amino)-6-methylquinazolin-2-carboxamide dihydrochloride] | 0.4 | – | –
13 | COCCNC(=O)c1nc(N[C@H]2CCCC[C@H]2NC(=N)COC)c2cc(C)ccc2n1.Cl.Cl [Example 91, 4-({(1S,2R)-2-[(2-methoxyethanimidoyl)amino]cyclohexyl}amino)-N-(2-methoxyethyl)-6-methylquinazolin-2-carboxamide dihydrochloride] | 0.5 | 70.5 | –
14 | COCCCNC(=O)c1nc(N[C@H]2CCCC[C@H]2NC(C)=N)c2cc(C)ccc2n1.Cl.Cl [Example 92, 4-{[(1S,2R)-2-(ethanimidoylamino)cyclohexyl]amino}-N-(3-methoxypropyl)-6-methylquinazolin-2-carboxamide dihydrochloride] | 0.0 | 76.3 | Change in behavior (Mice [1]; 10 mg/kg): No obvious change; Average number of scratching behavior (Mice [2]; oral administration, dose 30 mg/kg, 20 minutes prior to serotonin): 141.0
15 | COCCCNC(=O)c1nc(N[C@H]2CCCC[C@H]2NC(=N)COC)c2cc(C)ccc2n1.Cl.Cl [Example 93, 4-({(1S,2R)-2-[(2-methoxyethanimidoyl)amino]cyclohexyl}amino)-N-(3-methoxypropyl)-6-methylquinazolin-2-carboxamide dihydrochloride] | 0.2 | – | –
16 | CCOCCNC(=O)c1nc(N[C@H]2CCCC[C@H]2NC(C)=N)c2cc(C)ccc2n1.Cl.Cl [Example 94, 4-{[(1S,2R)-2-(ethanimidoylamino)cyclohexyl]amino}-N-(2-ethoxyethyl)-6-methylquinazolin-2-carboxamide dihydrochloride] | 1.0 | – | –
17 | CCOCCNC(=O)c1nc(N[C@H]2CCCC[C@H]2NC(=N)COC)c2cc(C)ccc2n1.Cl.Cl [Example 95, N-(2-ethoxyethyl)-4-({(1S,2R)-2-[(2-methoxyethanimidoyl)amino]cyclohexyl}amino)-6-methylquinazolin-2-carboxamide dihydrochloride] | 0.7 | – | –
18 | CC(=N)N[C@@H]1CCCC[C@@H]1Nc1nc(C(=O)NC(C)C)nc2ccc(C)cc12.Cl.Cl [Example 101, 4-{[(1S,2R)-2-(ethanimidoylamino)cyclohexyl]amino}-N-isopropyl-6-methylquinazolin-2-carboxamide dihydrochloride] | 2.6 | 56.8 | Change in behavior (Mice [1]; 10 mg/kg): No obvious change
19 | COCCNC(=O)c1nc(N[C@H]2CCCC[C@H]2NC(N)=NOC)c2cc(C)ccc2n1.Cl.Cl [Example 208, 4-[((1S,2R)-2-{[amino(methoxyimino)methyl]amino}cyclohexyl)amino]-N-(2-methoxyethyl)-6-methylquinazolin-2-carboxamide dihydrochloride] | 0.2 | 81.0 | Change in behavior (Mice [1]; 20 mg/kg): No obvious change; Average number of scratching behavior (Mice [2]; [4]): 53.8
20 | CON=C(N)N[C@@H]1CCCC[C@@H]1Nc1nc(C(=O)NCC(C)C)nc2ccc(C)cc12.Cl.Cl [Example 211, 4-[((1S,2R)-2-{[amino(methoxyimino)methyl]amino}cyclohexyl)amino]-N-isobutyl-6-methylquinazolin-2-carboxamide dihydrochloride] | 1.5 | 73.0 | Change in behavior (Mice [1]; 10 mg/kg): No obvious change
21 | CON(C)C(=N)N[C@@H]1CCCC[C@@H]1Nc1nc(C(=O)NCC(C)C)nc2ccc(C)cc12.Cl.Cl [Example 236, 4-{[(1S,2R)-2-({imino[methoxy(methyl)amino]methyl}amino)cyclohexyl]amino}-N-isobutyl-6-methylquinazolin-2-carboxamide dihydrochloride] | 1.6 | – | –
22 | COCCNC(=O)c1nc(N[C@H]2CCCC[C@H]2NC(N)=NOC)c2cc(C)ccc2n1.COCCNC(=O)c1nc(N[C@H]2CCCC[C@H]2NC(N)=NOC)c2cc(C)ccc2n1.O=S(=O)(O)O [Example 248, 4-[((1S,2R)-2-{[amino(methoxyimino)methyl]amino}cyclohexyl)amino]-N-(2-methoxyethyl)-6-methylquinazolin-2-carboxamide 1/2 sulfate] | – | – | Simple primary skin irritation index (Rabbits): 0.8
